Experiments:
HBV [1] = test: HBV infection of human hepatocellular carcinoma cell line HuH7; format: cell-based; settings: hIL-6 500 ng/ml
Method: HBV infection protocol of human hepatocellular carcinoma cell line HuH7: Human sera were screened for the presence of HBV DNA sequences. Positive sera were analyzed quantitatively for viral particle concentration, as described by A. Klein, J. Clin. Microb., vol. 35, pp. 1897-1899 […]. Sera containing over 108 particles per ml were selected for infection experiments. The infection experiments included the following groups: Group 1—Cells were incubated with HBV without the addition of hIL-6 in the presence of polybrene 2 mg/ml, for 90 min at 37° C., in a 5% CO2 shaking incubator, in a total volume of 1.5 to 2 ml. Group 2—Cells were incubated with 1 ml of HBV positive serum, in the presence of hIL-6 (500 ng/ml) and polybrene 2 mg/ml, for 90 min at 37° C., in a 5% CO2 incubator, in a total volume of 1.5 to 2 ml. Group 3—Cells were incubated with 1 ml of HBV positive serum, in the presence of the cytokine hyper-IL-6 (HIL-6), 1.5 mg/ml, and polybrene 2 mg/ml, for 90 min at 37° C., in a 5% CO2 shaking incubator, in a total volume of 1.5 to 2 ml. The preparation of the cytokine hyper-IL-6 (HIL-6) is described in M. Fischer, et al., Nat. Biotechnol., vol. 15, pp. 142-145 (1997); T. Rakemann et al., J. Biol. Chem., vol. 274, pp. 1257-1266 (1999); P. Schirmacher et al., Am. J. Pathol., vol. 153, pp. 639-648 (1998). […]

HBV [2] = test: HBV-DNA by PCR in sera of chimeric mice after intrasplenic injection of HepG2-derived cell lines incubated with HBV with or without hIL6; format: in vivo, SCID>BNX chimeric mice; settings: HepG2-hIL6R cells incubated with HBV in the presence of hIL6
Method: Following incubation, the various mixtures were injected intrasplenically to the chimeric mice to generate HCC foci in the liver, as shown in FIG. 4.
All cell lines grew in T25 flasks supplemented with DMEM medium, enriched with 10% fetal bovine serum. For infection experiments, cells were trypsinized and washed twice with PBS, followed by incubation with HBV-positive human sera ([…]) in the presence or absence of hIL6 (500 ng/ml) in 1-2 ml of DMEM. After 2-4 h incubation at 37° C., 4×10^6 cells/ml, 0.5 ml/mouse were injected intrasplenically to 8-10 SCID>BNX mice in each group. Animals were splenectomized following the injection.
Mice were bled at two weekly intervals for 3 months, and DNA was extracted from 100 μl sera. The DNA was subjected to PCR amplification. The DNA extraction and the PCR method applied are described in the legend of FIG. 3.

HBV [3] = test: HBV viremia in SCID>BNX chimeric mice transplanted with normal human liver fragments incubated ex-vivo with HBV-positive sera with hIL6
Method: A fragment of normal human liver from a patient with no indication of any HBV-related markers or disease, was incubated ex-vivo with a high titer HBV DNA-positive serum prior to transplantation under the kidney capsule of the chimeric animals. HBV DNA sequences were undetectable by PCR from two different genomic regions in any of these animals during the month following transplantation.
However, when liver tissue originating from the same patients was incubated ex-vivo with the above-mentioned HBV DNA-positive sera together with hIL6, HBV DNA sequences were detected from day 16 to day 31, in sera of about 50% of the transplanted animals.
Pre-exposure of liver tissue to hIL6 prior to incubation with HBV ex-vivo, increased infection to about 90% of the animals. […]
The 50 μl PCR reaction volume contained 10 pmole of each oligonucleotide primer in reaction buffer (10 mM Tris-HCl, pH 8.3, 50 mM KCl, 2.0 mM MgCl2, 0.01 % (w/v) gelatin, 250 μM of dATP, dGTP, dCTP, dTTP and 0.5 u of Taq polymerase. The reaction mixtures were overlaid with 30 μl of mineral oil. PCR cycles included 94° C. for 1 min., 55° C. for 1 min. and 72° C. for 3 min., 35 repeated cycles. 10 μl of reaction mixture was analyzed on a 2% agarose gel. Oligonucleotides used for the pre-core/core amplification were: […]

## hIL6: human interleukin 6
HBV [1]
  HBV infection of HuH7 cells: enhanced
HBV [2]
  time after transplantation at which HBV-DNA sequences could be detected in serum: 13 days
HBV [3]; liver tissue incubated ex-vivo with HBV DNA-positive sera together with hIL6 (500 ng/ml), day 16 to day 31
  transplanted animals with HBV DNA sequences detected in sera: about 50%
HBV [3]; pre-exposure of liver tissue to hIL6 prior to incubation with HBV ex-vivo
  animals infected: about 90%
